From PMC4060991, “The Human Orphan Nuclear Receptor Tailless (TLX, NR2E1) Is Druggable” (PLoS ONE, 2014)

Key:
human PNR (NR2E3) LBD = target: T1, human PNR (NR2E3) LBD (Homo sapiens, UniProt Q9Y5X4); assay: GAL4-PNR LBD luciferase transactivation assay in HeLa cells; format: cell-based; settings: 10 µM, 24 h
T1 construct: expressed in transfected cells; host or cells: HeLa
T1 sequence (Q9Y5X4 192-410): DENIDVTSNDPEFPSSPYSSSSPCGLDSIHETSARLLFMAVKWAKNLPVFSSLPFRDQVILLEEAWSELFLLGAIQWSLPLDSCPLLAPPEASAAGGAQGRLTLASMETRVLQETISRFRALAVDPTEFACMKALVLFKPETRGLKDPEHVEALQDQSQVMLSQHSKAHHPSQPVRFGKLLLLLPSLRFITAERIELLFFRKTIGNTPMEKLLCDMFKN
Procedure: For the transactivation assays involving human PNR (Photoreceptor cell-specific Nuclear Receptor, NR2E3) LBD, we used an already described pBIND-PNR LBD (residues 192–410, [37]) plasmid (gift from Dr. H. Eric Xu, Van Andel Institute). The transient co-transfections of HeLa cells with vectors encoding either Gal4DBD or pBIND-PNR LBD fusion (both at 50 ng/well), pGL4.35 reporter gene (200 ng/well) and renilla luciferase gene (50 ng/well, internal control) were performed in batches of 10^5 cells seeded into 12-well tissue culture plates. Twenty-four hours after the transfections, cells were treated with either DMSO (0.1%, control) or compounds ccrp1, ccrp2 or ccrp3 at 10 µM. Following 24 h incubation, luciferase activities in each well were assessed as described above. Cells transfected with Gal4 DBD vector served as a control for PNR independent effects.

COUP-TFII LBD = target: T2, COUP-TFII LBD (Homo sapiens, UniProt P24468); assay: GAL4 DBD-COUP-TFII LBD luciferase transactivation assay in HeLa cells; format: cell-based; settings: 10 µM, 24 h, alone or in competition with 9-cis retinoic acid 5 µM
T2 construct: expressed in transfected cells; host or cells: HeLa
T2 sequence (P24468 177-403 limits assumed): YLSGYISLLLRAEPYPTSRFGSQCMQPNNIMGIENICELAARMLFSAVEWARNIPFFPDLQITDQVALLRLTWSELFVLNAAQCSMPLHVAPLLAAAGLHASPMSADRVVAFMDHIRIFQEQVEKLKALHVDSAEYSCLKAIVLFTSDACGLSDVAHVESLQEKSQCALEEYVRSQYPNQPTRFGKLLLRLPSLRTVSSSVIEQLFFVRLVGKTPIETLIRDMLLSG
Procedure: For the transactivation assays with the GAL4 DBD-COUP-TFII LBD plasmid ([28], gift from Dr. H. Eric Xu, Van Andel Institute), we transiently transfected in batches of 10^5 HeLa cells seeded into 12-well tissue culture plates vectors encoding either Gal4 DBD or Gal4 DBD-COUP-TFII LBD fusion (both at 100 ng/well), pGL4.35 reporter gene (200 ng/well) and renilla luciferase gene (100 ng/well, internal control). At 24 h after the transfections, cells were treated with either DMSO (0.1%, control) or compounds ccrp1, ccrp2 or ccrp3 at 10 µM, in the absence or the presence of 9-cis retinoic acid (RA, 5 µM). Following 24 h incubation, luciferase activities in each well were assessed as described above. Cells transfected with Gal4 DBD vector served as a control for COUP-TFII independent effects.

human LXRβ LBD = target: T3, human LXRβ LBD (Homo sapiens, UniProt P55055); assay: DSF on purified LXRβ LBD; format: binding; settings: compound 500 µM; unliganded Tm ∼39°C
T3 construct: human LXRβ LBD (Liver X Receptor beta, a.a. 226–460) was expressed; His6 followed by TEV protease cleavage site (N); made in house; host or cells: E. coli BL21 (DE3) star
T3 sequence (P55055 226-460): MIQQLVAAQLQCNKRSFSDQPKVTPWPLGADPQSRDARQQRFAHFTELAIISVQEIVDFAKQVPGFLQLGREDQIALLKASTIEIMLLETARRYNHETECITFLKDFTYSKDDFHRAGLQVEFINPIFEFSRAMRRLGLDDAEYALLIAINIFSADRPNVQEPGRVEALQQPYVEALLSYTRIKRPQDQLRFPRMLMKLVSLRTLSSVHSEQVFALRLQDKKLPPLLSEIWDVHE
Procedure: Protein stability was assessed with DSF in absence or presence of test compounds in a LightCycler 480 II qRT-PCR Detection System (Roche) in 384-well format. Sypro-Orange dye (Life Technologies) was used to monitor fluorescence, with filters for fluorescence excitation at 465 nm and for fluorescence emission at 610 nm. […] Tested sample mixtures were heated from 25°C to 96°C at a rate of 0.05°C/sec with 11 acquisitions per °C. Each compound was tested in duplicates. The melting temperature (Tm) for each sample was deduced by the ThermoQ Analytical software (HMRI) from the first derivative of the corresponding denaturation curve generated by the LightCycler 480 software. The same protocol was applied to investigate the stability of purified ERβ and LXRβ LBDs in presence or absence of the compounds. The optimal final concentrations for these experiments were 0.02 mg/mL for ERβ LBD and 0.20 mg/mL for LXRβ LBD. All DSF-based analyses were performed using freshly purified protein.

GAL4 DBD vector = assay: Luciferase assay in HeLa cells transfected with empty GAL4 DBD vector (absence of TLX); format: cell-based, human; settings: different concentrations, 16 h
Procedure: HeLa cells were maintained in D-MEM High Glucose (Hyclone) supplemented with 10% charcoal:dextran stripped FBS (Hyclone) and 1x Pen/Strep antibiotics (Life Technologies). Transient transfections were carried out in batches on 100,000 cells seeded into 12-well tissue culture plates. The co-transfections were performed using the TransFectin Lipid reagent (Bio-Rad) with approximately 10 ng/well of Gal4 DBD (gift from Phuong Nguyen, Fletterick Laboratory, UCSF) or GAL4-TLX LBD, 10 ng/well of renilla luciferase gene (Promega) for internal control and 200 ng/well of pGL4.35 reporter gene (containing an upstream Gal4 Upstream Activator Sequence and the luciferase gene, Promega). Approximately, 3 h after transfections, cells were treated with compounds of interest at different concentrations, or solvent (DMSO, 0.1%) in DMEM containing no fetal bovine serum or antibiotics. After a 16-h incubation, luciferase activities were assessed using Dual Luciferase assay reagent (Promega). Luciferase activities were calculated by normalizing firefly luciferase to renilla luciferase signal. […] Cells transfected with Gal4 DBD vector served as a control for TLX independent effects.

ERβ LBD = ERβ LBD (Homo sapiens, UniProt Q92731); assay: Gal4 DBD-ERβ LBD luciferase transactivation assay in HeLa cells; format: cell-based; design: vectors encoding either Gal4 DBD or Gal4 DBD-ERβ LBD fusion; expressed in transfected cells; host or cells: HeLa; settings: 10 µM, 24 h, alone or in competition with E2 100 nM
Procedure: For ERβ, transient cotransfections of HeLa cells with vectors encoding either Gal4 DBD or Gal4 DBD-ERβ LBD fusion (gift from Dr. Stefan Andersson, University of Houston, deceased), both at 10 ng/well, constructs for Gal4-E1B promoter linked to a luciferase reporter gene (200 ng/well) and renilla luciferase gene (10 ng/well, internal control) were performed in batches of 10^5 cells seeded into 12-well tissue culture plates. At 24 h after the transfections, cells were treated with either DMSO (0.1%, control) or ccrp1; ccrp2 and ccrp3 at 10 µM, in the presence or absence of estradiol (E2, 100 nM), in the medium containing no fetal bovine serum. Following 24 h incubation, luciferase activities in each well were assessed as described above. Cells transfected with Gal4 DBD vector served as a control for ERβ independent effects.

ERβ LBD, sequence (Q92731 264-498 limits assumed): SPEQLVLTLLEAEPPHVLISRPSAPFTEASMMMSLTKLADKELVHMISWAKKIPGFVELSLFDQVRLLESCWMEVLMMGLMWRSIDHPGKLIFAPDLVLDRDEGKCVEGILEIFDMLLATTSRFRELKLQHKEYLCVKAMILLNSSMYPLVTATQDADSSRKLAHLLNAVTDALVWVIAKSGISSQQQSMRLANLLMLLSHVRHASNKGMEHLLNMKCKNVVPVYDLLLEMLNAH

Row | Compound | effect on PNR transcriptional activity (human PNR (NR2E3) LBD) | effect on COUP-TFII luciferase activity (COUP-TFII LBD) | melting temperature shift of LXRβ LBD (human LXRβ LBD) | effect on luciferase activities in absence of TLX (GAL4 DBD vector) | effect on ERβ luciferase activity (ERβ LBD)
1 | Cc1cc(C(=O)N2CCN(C(c3ccccc3)c3ccccc3)CC2)nn1C [ccrp2, 1-(1,5-dimethylpyrazole-3-carbonyl)-4-(diphenylmethyl)piperazine] | None of the compounds affected PNR transcriptional activity | No effect on luciferase activity was detected | Neither compound demonstrates any significant effect on the melting temperatures | do not affect the luciferase activities | No effect on luciferase activity was detected
2 | CC(C)c1c(CN(C)C(C)Cc2ccccc2)n(C)n(-c2ccccc2)c1=O (stereo not drawn) [ccrp1, Famprofazone] | None of the compounds affected PNR transcriptional activity | No effect on luciferase activity was detected | Neither compound demonstrates any significant effect on the melting temperatures | do not affect the luciferase activities | No effect on luciferase activity was detected
3 | CC(=O)[C@H]1CC[C@H]2[C@@H]3C=CC4=CC(=O)CC[C@@]4(C)[C@@H]3CC[C@]12C [ccrp3, Dydrogesterone] | None of the compounds affected PNR transcriptional activity | No effect on luciferase activity was detected | Neither compound demonstrates any significant effect on the melting temperatures | do not affect the luciferase activities | No effect on luciferase activity was detected
